This is an account of results in US20220235068A1, “TETRACYCLIC COMPOUNDS AS CDC7 INHIBITORS” (Chia Tai Tianqing Pharmaceutical Group Co., Ltd., priority 2019, published 2022).

Structures can show the parent of a compound that is named as a salt.

The first assay deals with T1, Cdc7/DBF4 (Homo sapiens, UniProt O00311).
T1 construct: purchased Promega
T1 sequence (O00311 whole entry): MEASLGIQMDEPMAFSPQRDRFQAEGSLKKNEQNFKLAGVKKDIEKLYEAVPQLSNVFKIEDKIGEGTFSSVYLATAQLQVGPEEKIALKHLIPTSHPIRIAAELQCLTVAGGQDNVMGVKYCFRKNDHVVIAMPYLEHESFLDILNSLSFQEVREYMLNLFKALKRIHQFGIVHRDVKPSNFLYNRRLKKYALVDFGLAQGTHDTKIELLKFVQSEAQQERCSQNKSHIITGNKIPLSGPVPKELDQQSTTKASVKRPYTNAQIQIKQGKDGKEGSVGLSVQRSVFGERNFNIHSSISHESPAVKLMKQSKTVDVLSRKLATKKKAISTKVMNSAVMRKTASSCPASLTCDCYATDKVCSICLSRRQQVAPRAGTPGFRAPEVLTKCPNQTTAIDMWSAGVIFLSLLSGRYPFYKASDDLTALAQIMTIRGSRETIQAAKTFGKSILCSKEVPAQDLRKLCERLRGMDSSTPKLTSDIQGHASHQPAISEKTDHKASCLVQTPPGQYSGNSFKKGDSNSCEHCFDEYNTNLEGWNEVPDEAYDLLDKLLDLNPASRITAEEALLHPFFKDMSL
T1 sequence (Q9UBU7 whole entry partner): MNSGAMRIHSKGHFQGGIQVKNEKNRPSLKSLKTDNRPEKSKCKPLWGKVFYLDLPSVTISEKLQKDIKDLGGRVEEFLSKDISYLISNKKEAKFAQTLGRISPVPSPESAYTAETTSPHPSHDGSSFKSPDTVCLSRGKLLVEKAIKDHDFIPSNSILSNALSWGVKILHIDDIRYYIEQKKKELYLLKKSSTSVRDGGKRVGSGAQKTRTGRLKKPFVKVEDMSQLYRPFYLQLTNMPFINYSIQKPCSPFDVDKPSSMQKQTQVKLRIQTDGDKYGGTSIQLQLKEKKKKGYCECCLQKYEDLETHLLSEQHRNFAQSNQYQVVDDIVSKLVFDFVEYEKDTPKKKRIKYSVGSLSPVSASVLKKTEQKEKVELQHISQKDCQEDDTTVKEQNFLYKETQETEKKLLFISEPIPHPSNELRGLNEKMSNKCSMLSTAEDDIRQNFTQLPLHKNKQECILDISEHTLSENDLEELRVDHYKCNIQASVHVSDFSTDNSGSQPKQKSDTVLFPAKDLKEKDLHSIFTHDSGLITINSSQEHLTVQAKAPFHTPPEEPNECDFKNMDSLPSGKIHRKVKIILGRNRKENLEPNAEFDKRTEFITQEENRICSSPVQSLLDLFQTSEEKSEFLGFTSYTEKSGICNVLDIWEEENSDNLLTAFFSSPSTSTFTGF
As to the kind of experiment: Inhibitory effect against activity of Cdc7/DBF4 (ADP-Glo kinase detection kit). The format is biochemical. Conditions: 10 μM ATP, 25° C., 60 min. How it is done:
Cdc7/DBF4 kinase detection kit purchased from Promega; and
(§1) Nivo multi-marker analyzer (PerkinElmer).
An enzyme, a substrate, adenosine triphosphate and an inhibitor were diluted with the kinase buffer in the kit. A test compound was serially 5-fold diluted to an 8th concentration, i.e., from 10 μM to 0.13 nM, with the DMSO concentration being 5%, and the duplicate well experiment was set up. To a microplate were added 1 μL of inhibitors of various concentration gradients, 2 μL of CDCl7/DBF4 kinase (6.25 ng), 2 μL of a mixture of substrate and ATP (10 μM adenosine triphosphate, 0.2 μg/μL substrate), and the final concentration gradient of the compound was diluted from 2 μM to 0.025 nM. The reaction system was left reacting at 25° C. for 60 min. After the reaction was completed, 5 μL of ADP-Glo reagent was added to each well, and the reaction was continued at 25° C. for 40 min. After the reaction was completed, 10 μL of the kinase detection reagent was added to each well. After 30 min of reaction at 25° C., the chemiluminescence was read using the multi-marker analyzer with an integration time of 0.5 s.
The original data were converted to inhibition using the equation (Sample−Min)/(Max−Min)×100%, and the IC50 value was then curve fitted using four parameters (obtained from the “log(inhibitor) vs. response-Variableslope” model in GraphPadPrism). Table 1 provides the enzymatic inhibitory activity of the compounds disclosed herein against Cdc7/DBF4.
(In general: In ADP-Glo the light output rises with the ADP produced.)
As usually defined, the IC50 is the concentration at which inhibition is half-maximal. High values mean a need for much substance, low ones inhibition by little substance. Compound `O=c1[nH]c([C@H]2CC3CCN2CC3)nc2c3c(sc12)-c1c[nH]nc1CCC3` (single isomer, unassigned) [Compound 1-2 hydrochloride] had an IC50 of 1.29 nM.

For the compound `O=c1[nH]c(C2CCCN2)nc2c3c(sc12)-c1c[nH]nc1CCC3` (single isomer, unassigned) [Compound 2-1 hydrochloride], half-maximal inhibition (IC50) was put at 3.73 nM. In turn, `O=c1[nH]c(C2CCCN2)nc2c3c(sc12)-c1c[nH]nc1CCC3` (single isomer, unassigned) [Compound 2-2 hydrochloride] returned an IC50 of 1.52 nM. In turn, `CN1CCCC1c1nc2c3c(sc2c(=O)[nH]1)-c1c[nH]nc1CCC3` (single isomer, unassigned) [Compound 3-1 hydrochloride] gave an IC50 of 1.19 nM.

Compound `CN1CCCC1c1nc2c3c(sc2c(=O)[nH]1)-c1c[nH]nc1CCC3` (single isomer, unassigned) [Compound 3-2 hydrochloride] returned an IC50 of 0.42 nM. `CC1(c2nc3c4c(sc3c(=O)[nH]2)-c2c[nH]nc2CCC4)CCCN1` (single isomer, unassigned) [Compound 4-1 hydrochloride] displayed an IC50 of 4.56 nM. `CC1(c2nc3c4c(sc3c(=O)[nH]2)-c2c[nH]nc2CCC4)CCCN1` (single isomer, unassigned) [Compound 4-2 hydrochloride] came in with an IC50 of 6.73 nM. Take `CN1CCCC1(C)c1nc2c3c(sc2c(=O)[nH]1)-c1c[nH]nc1CCC3` (single isomer, unassigned) [Compound 5-1 hydrochloride]: the IC50 was determined as 2.04 nM.

`CN1CCCC1(C)c1nc2c3c(sc2c(=O)[nH]1)-c1c[nH]nc1CCC3` (single isomer, unassigned) [Compound 5-2 hydrochloride] returned an IC50 of 2.35 nM. Consider `CC(C)N1CCCC1c1nc2c3c(sc2c(=O)[nH]1)-c1c[nH]nc1CCC3` (single isomer, unassigned) [Compound 6-1 hydrochloride], for which the IC50 is 1.7 nM. The compound `CC(C)N1CCCC1c1nc2c3c(sc2c(=O)[nH]1)-c1c[nH]nc1CCC3` (single isomer, unassigned) [Compound 6-2 hydrochloride] yielded an IC50 of 0.99 nM. Regarding `CN1CCCCC1c1nc2c3c(sc2c(=O)[nH]1)-c1c[nH]nc1CCC3` (single isomer, unassigned) [Compound 7-1 formate], it took 3.07 nM to reach half-maximal inhibition (IC50).

`CN1CCCCC1c1nc2c3c(sc2c(=O)[nH]1)-c1c[nH]nc1CCC3` (single isomer, unassigned) [Compound 7-2 formate] showed an IC50 of 2.7 nM. Same read-out and setting: then `O=c1[nH]c(C2CCCNC2)nc2c3c(sc12)-c1c[nH]nc1CCC3` (single isomer, unassigned) [Compound 8-1 hydrochloride], with 4.27 nM.

`O=c1[nH]c(C2CCCNC2)nc2c3c(sc12)-c1c[nH]nc1CCC3` (single isomer, unassigned) [Compound 8-2 hydrochloride]: half-maximal inhibition (IC50) was put at 1.17 nM. `CN1CCCC(c2nc3c4c(sc3c(=O)[nH]2)-c2c[nH]nc2CCC4)C1` (single isomer, unassigned) [Compound 9-1 hydrochloride]: half-maximal inhibition (IC50) required 4.85 nM.

As for `CN1CCCC(c2nc3c4c(sc3c(=O)[nH]2)-c2c[nH]nc2CCC4)C1` (single isomer, unassigned) [Compound 9-2 hydrochloride], the IC50 amounted to 1.09 nM. In the case of `O=c1[nH]c(C2C3CCN2CC3)nc2c3c(sc12)-c1c[nH]nc1CCC3` (single isomer, unassigned) [Compound 14-1 hydrochloride], the IC50 is 1.21 nM.

In the case of `O=c1[nH]c(C2C3CCN2CC3)nc2c3c(sc12)-c1c[nH]nc1CCC3` (single isomer, unassigned) [Compound 14-2 hydrochloride], the IC50 was found to be 1.43 nM. `O=c1[nH]c(C2CCNCC2)nc2c3c(sc12)-c1c[nH]nc1CCC3` [Compound 10 hydrochloride]: the IC50 amounted to 1.69 nM.

As to `CN1CCC(c2nc3c4c(sc3c(=O)[nH]2)-c2c[nH]nc2CCC4)CC1` [Compound 11 hydrochloride], it took 4.85 nM to reach half-maximal inhibition (IC50).

Compound `CC1(c2nc3c4c(sc3c(=O)[nH]2)-c2c[nH]nc2CCC4)CCNCC1` [Compound 12 hydrochloride] gave an IC50 of 1.38 nM. With `CN1CCC(C)(c2nc3c4c(sc3c(=O)[nH]2)-c2c[nH]nc2CCC4)CC1` [Compound 13 hydrochloride], the IC50 was found to be 5.66 nM.

Another assay has as its system Colo205 cells. In words: Inhibitory effect against Colo205 cell proliferation (CellTiter-Glo). To be noted: Homo sapiens, COLO 205, 72 h, incubation 3 days. The class given is cell-based. Here is the method: 1640 medium; fetal bovine serum; penicillin/streptomycin antibiotics purchased from Wisent;
CellTiter-Glo (chemiluminescence detection reagent for cell viability) reagent purchased from Promega;
COL0205 cell line purchased from Wuhan Procell Life Science&Technology Co., Ltd; and
as §1
COL0205 cells were plated on to white 96-well plates by adding 80 μL of cell suspension (containing 3000 COL0205 cells) to each well. The cell plate was incubated in a CO2 incubator overnight.
A test compound was serially 3-fold diluted to an 8th concentration, i.e., from 2 mM to 920 nM, and the duplicate well experiment was set up. 78 μL of medium was added to an intermediate plate, 2 μL of the serially diluted compound was transferred to corresponding wells of the intermediate plate, and after mixing, the mixture was transferred to the cell plate at 20 μL per well. The concentration of the compound transferred to the cell plate ranged from 10 μM to 4.57 nM. The cell plate was incubated in a CO2 incubator for 3 days. Another cell plate was provided for reading signal values on the day of compound addition and these values were used as […] in data analysis. The chemiluminescence detection reagent for cell viability was added to this cell plate at 25 μL per well and the luminescence signals were stabilized by incubation at room temperature for 10 min. Readings were taken using the multi-marker analyzer. The chemiluminescence detection reagent for cell viability was added to the cell plate at 25 μL per well and the luminescence signals were stabilized by incubation at room temperature for 10 min. Readings were taken using the multi-marker analyzer.
The original data were converted to inhibition using the equation (Sample−Min)/(Max−Min)×100%, and the IC50 value was then curve fitted using four parameters (obtained from the “log(inhibitor) vs. response-Variableslope” model in GraphPadPrism). Table 2 provides the inhibitory activity of the compounds disclosed herein against COL0205 cell proliferation.
(In general: ATP-based viability assays read luminescence as a measure of living cells.)
In the case of `O=c1[nH]c(C2C3CCN2CC3)nc2c3c(sc12)-c1c[nH]nc1CCC3` (single isomer, unassigned) [Compound 14-1 hydrochloride], the half-maximal inhibitory concentration (IC50) stood at 50.1 nM.

Staying with this assay, now noted: incubation 3 days.
`O=c1[nH]c([C@H]2CC3CCN2CC3)nc2c3c(sc12)-c1c[nH]nc1CCC3` (single isomer, unassigned) [Compound 1-2 hydrochloride] showed a half-maximal inhibitory concentration (IC50) of 53.6 nM.

Another assay relates to human colorectal cancer cell SW620. In words: In vivo pharmacodynamic study in subcutaneous xenograft tumor nude mouse model of SW620. To be noted: 40 mg/kg, BID, p.o.; Day 1. Here is the method: Human colorectal cancer cell SW620 cells of the 7th passage were cultured in an L-15 medium containing 10% fetal bovine serum, 100 U/mL penicillin and 100 μg/mL streptomycin through in vitro monolayer culture in an incubator at 37° C./[…] for 4 passages with conventional medium replacement. At a cell saturation of 80-90%, the cells were digested with pancreatin-EDTA, counted and resuspended in PBS at a density of 5×10^6 cells/100 μL.
Cell inoculation: Each mouse was inoculated on the right cervical dorsum with 0.1 mL of the cell suspension of 5×10^6 SW620 cells in PBS. At an average tumor volume up to about 134 mm^3, the mice were randomly grouped and administrated.
Tumor diameters were measured twice weekly using a vernier caliper. The tumor volume was calculated using the following formula: V=0.5 a×b^2, where a and b represent the long diameter and short diameter of the tumor, respectively.
The anti-tumor therapeutic effect of the compound was evaluated by TGI (%) or relative tumor proliferation rate T/C (%). Relative tumor proliferation rate T/C (%)=TRTV/CRTV×100% (TRTV: RTV of treatment group; CRTV: RTV of negative control group). Relative tumor volumes (RTVs) were calculated from the tumor measurement results using the following formula: RTV=Vt/VO, where VO is the average tumor volume measured at the time of grouping (i.e., DO), Vt is the average tumor volume measured at a certain measurement, and TRTV and CRTV are taken from the data measured on the same day.
TGI (%), reflects the tumor growth inhibition rate. TGI (%)=[(1−(average tumor volume at the end of administration in a treatment group−average tumor volume at the start of administration of the treatment group))/(average tumor volume at the end of treatment of the vehicle control group−average tumor volume at the start of treatment of the vehicle control group)]×100%.
After day 22 of the grouping, mice were euthanized, plasma and tumors were sampled and tumors were weighed and photographed.
For the compound `Cc1n[nH]cc1-c1cc2nc([C@@H]3CC4CCN3CC4)[nH]c(=O)c2s1` [TAK-931, reference compound], the “Tumor volume (Day 1)” value is listed as 134 ± 13 mm^3.

Staying with this assay, now noted: 40 mg/kg, BID, p.o.; Day 21.
With `Cc1n[nH]cc1-c1cc2nc([C@@H]3CC4CCN3CC4)[nH]c(=O)c2s1` [TAK-931, reference compound], the “RTV (Day 21)” value was 1.36, the “T/C (%) (Day 21)” value is 16%, the “TGI (%) (Day 21)” value turned out to be 96% and the “Tumor volume (Day 21)” value was determined as 176 ± 27 mm^3.
